From US20060045953A1 (priority 2004, published 2006)

What follows are compounds tested against T1, hT1R2/hT1R3 sweet receptor (Homo sapiens, UniProt Q7RTX0+Q8TE23) (assay: In vitro hT1R2/hT1R3 sweet taste receptor activation assay (FLIPR, dose response)). Settings: Table E, Sweet Enhancer Amides; read-out: Sweet EC50.
T1 construct: expressed in transfected cells; host or cells: HEK293 derivative stably expressing Gα15, clone S-9
T1 sequence (Q8TE23 20-839): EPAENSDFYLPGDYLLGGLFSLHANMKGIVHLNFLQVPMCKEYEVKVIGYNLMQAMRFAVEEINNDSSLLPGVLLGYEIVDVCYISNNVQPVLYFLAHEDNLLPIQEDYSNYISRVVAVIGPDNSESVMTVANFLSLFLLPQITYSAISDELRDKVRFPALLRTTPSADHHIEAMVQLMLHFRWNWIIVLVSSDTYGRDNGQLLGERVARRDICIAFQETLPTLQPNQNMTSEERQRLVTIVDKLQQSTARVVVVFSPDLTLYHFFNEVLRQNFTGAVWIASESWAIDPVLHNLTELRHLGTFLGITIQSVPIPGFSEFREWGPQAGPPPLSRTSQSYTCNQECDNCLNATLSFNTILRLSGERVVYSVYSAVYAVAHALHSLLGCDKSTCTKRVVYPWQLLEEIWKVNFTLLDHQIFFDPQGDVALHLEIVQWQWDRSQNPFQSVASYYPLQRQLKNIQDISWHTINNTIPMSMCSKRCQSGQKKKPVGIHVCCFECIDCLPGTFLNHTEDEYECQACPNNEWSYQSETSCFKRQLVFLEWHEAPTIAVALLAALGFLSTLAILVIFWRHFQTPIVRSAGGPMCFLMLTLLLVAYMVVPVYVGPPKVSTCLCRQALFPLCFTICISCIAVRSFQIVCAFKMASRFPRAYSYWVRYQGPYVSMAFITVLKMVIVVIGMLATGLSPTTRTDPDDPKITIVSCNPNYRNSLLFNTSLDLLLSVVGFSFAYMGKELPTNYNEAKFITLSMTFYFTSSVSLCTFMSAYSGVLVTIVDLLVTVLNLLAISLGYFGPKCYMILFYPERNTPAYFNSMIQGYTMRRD
T1 sequence (Q7RTX0 21-852): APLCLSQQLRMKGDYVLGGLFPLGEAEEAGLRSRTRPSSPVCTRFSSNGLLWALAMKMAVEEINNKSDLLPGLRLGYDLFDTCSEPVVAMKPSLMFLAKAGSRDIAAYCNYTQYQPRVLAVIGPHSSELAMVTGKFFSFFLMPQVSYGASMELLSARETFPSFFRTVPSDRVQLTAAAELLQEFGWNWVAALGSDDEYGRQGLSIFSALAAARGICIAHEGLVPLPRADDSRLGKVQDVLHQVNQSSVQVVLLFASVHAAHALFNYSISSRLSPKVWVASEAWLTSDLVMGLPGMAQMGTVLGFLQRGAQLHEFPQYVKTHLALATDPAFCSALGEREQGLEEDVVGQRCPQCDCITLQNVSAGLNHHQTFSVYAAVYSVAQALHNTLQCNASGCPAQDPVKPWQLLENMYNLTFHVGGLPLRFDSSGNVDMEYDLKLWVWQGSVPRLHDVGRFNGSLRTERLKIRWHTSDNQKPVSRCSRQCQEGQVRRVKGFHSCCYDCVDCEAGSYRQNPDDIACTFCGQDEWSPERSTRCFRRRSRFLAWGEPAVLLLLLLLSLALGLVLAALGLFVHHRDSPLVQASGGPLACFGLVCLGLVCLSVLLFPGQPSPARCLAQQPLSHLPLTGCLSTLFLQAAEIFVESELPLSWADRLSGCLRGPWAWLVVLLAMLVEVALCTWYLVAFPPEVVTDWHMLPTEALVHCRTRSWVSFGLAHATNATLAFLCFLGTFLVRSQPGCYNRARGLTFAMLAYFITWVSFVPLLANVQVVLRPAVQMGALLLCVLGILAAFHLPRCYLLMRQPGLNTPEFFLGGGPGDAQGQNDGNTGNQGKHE
Type: cell-based
Protocol: Activity was determined using an automated fluorometric imaging assay on a FLIPR instrument (Fluorometric Intensity Plate Reader, Molecular Devices, Sunnyvale, Calif.) (designated FLIPR assay). […] S-9 cells were grown for 24 hours at 37° C. S-9 cells were then loaded with the calcium dye Fluo-3AM (Molecular Probes, Eugene, Oreg.), 4 µM in a phosphate buffered saline (D-PBS) (Invitrogen, Carlsbad, Calif.), for 1 hour at room temperature. After replacement with 25 µl D-PBS, stimulation was performed in the FLIPR instrument and at room temperature by the addition of 25 µl D-PBS supplemented with different stimuli at concentrations corresponding to twice the desired final level.
For dose-responses analysis, stimuli were presented in duplicates at 10 different concentrations ranging from 60 nM to 30 µM. Activities were normalized to the response obtained with 400 mM D-fructose, a concentration that elicits maximum receptor response. EC50s were determined using a non-linear regression algorithm (using a Senomyx, Inc. software), where the Hill slope, bottom asymptotes and top asymptotes were allow to vary.

Row | SMILES | EC50 [µM]
1 | O=C(N[C@@H]1CCCc2ccccc21)c1cccc(F)c1 [Example E23, (R)-3-fluoro-N-(1,2,3,4-tetrahydronaphthalen-1-yl)benzamide] | 4.86
2 | O=C(N[C@@H]1CCCc2ccccc21)c1cc(O)ccc1O [Example E24, (R)-2,5-dihydroxy-N-(1,2,3,4-tetrahydronaphthalen-1-yl)benzamide] | 6.04
3 | Cc1c(F)c(F)c(C(=O)NC(C)C(C)C)c(F)c1F (centres unmarked) [Example E27, 2,3,5,6-tetrafluoro-4-methyl-N-(3-methylbutan-2-yl)benzamide] | 0.14
4 | Cc1c(F)c(F)c(C(=O)NC(C)C(C)(C)C)c(F)c1F (centres unmarked) [Example E28, N-(3,3-dimethylbutan-2-yl)-2,3,5,6-tetrafluoro-4-methylbenzamide] | 0.21
5 | Cc1c(F)c(F)c(C(=O)N[C@H](C)C(C)(C)C)c(F)c1F [Example E31, (R)-N-(3,3-dimethylbutan-2-yl)-2,3,5,6-tetrafluoro-4-methylbenzamide] | 0.49
6 | CCCCC(C)NC(=O)c1c(F)c(F)c(C)c(F)c1F (centres unmarked) [Example E34, 2,3,5,6-tetrafluoro-N-(hexan-2-yl)-4-methylbenzamide] | 0.71
7 | Cc1c(F)c(F)c(C(=O)N[C@@H](C)C(C)(C)C)c(F)c1F [Example E38, (S)-N-(3,3-dimethylbutan-2-yl)-2,3,5,6-tetrafluoro-4-methylbenzamide] | 0.9
8 | COc1cc(C(=O)NC2CCCCC2C)cc(Cl)n1 (centres unmarked) [Example E40, 2-chloro-6-methoxy-N-(2-methylcyclohexyl)isonicotinamide] | 0.95
9 | Cc1c(F)c(F)c(C(=O)N[C@@H]2CC3CCC2C3)c(F)c1F (stereo partly drawn) [Example E41, N-((2R)-bicyclo[2.2.1]heptan-2-yl)-2,3,5,6-tetrafluoro-4-methylbenzamide] | 1.02
10 | CCC(COC)NC(=O)c1ccc(C)cc1C (centres unmarked) [Example E42, N-(1-methoxybutan-2-yl)-2,4-dimethylbenzamide] | 1.06
11 | Cc1c(F)c(F)c(C(=O)NC2CCCCC2)c(F)c1F [Example E45, N-cyclohexyl-2,3,5,6-tetrafluoro-4-methylbenzamide] | 1.13
12 | Cc1c(F)c(F)c(C(=O)NC2CCCCCCC2)c(F)c1F [Example E46, N-cyclooctyl-2,3,5,6-tetrafluoro-4-methylbenzamide] | 1.25
13 | Cc1c(F)c(F)c(C(=O)N[C@H](C)C(C)C)c(F)c1F [Example E47, (R)-2,3,5,6-tetrafluoro-4-methyl-N-(3-methylbutan-2-yl)benzamide] | 1.25
14 | O=C(NC1CCc2ccccc21)c1cccc(Cl)c1O (centres unmarked) [Example E51, 3-chloro-N-(2,3-dihydro-1H-inden-1-yl)-2-hydroxybenzamide] | 1.49
15 | Cc1c(F)c(F)c(C(=O)NC2CCCC2)c(F)c1F [Example E58, N-cyclopentyl-2,3,5,6-tetrafluoro-4-methylbenzamide] | 2.23
16 | CC1CCC(NC(=O)c2ccc(F)c(C(F)(F)F)c2)CC1 (centres unmarked) [Example E60, 4-fluoro-N-(4-methylcyclohexyl)-3-(trifluoromethyl)benzamide] | 2.37

Now from value to compound:

Row | EC50 [µM] | SMILES
17 | 7.79 | Cc1nocc1C(=O)N[C@@H]1CCCc2ccccc21 [Example E25, (R)-3-methyl-N-(1,2,3,4-tetrahydronaphthalen-1-yl)isoxazole-4-carboxamide]
18 | 0.42 | CC1CCCCC1NC(=O)c1cccc(OC(F)(F)F)c1 (centres unmarked) [Example E29, N-(2-methylcyclohexyl)-3-(trifluoromethoxy)benzamide]
19 | 0.45 | CC1CCCCC1NC(=O)c1cc(F)cc(Cl)c1 (centres unmarked) [Example E30, 3-chloro-5-fluoro-N-(2-methylcyclohexyl)benzamide]
20 | 0.51 | CC1CCCCC1NC(=O)c1ccc(F)c(C(F)(F)F)c1 (centres unmarked) [Example E32, 4-fluoro-N-(2-methylcyclohexyl)-3-(trifluoromethyl)benzamide]
21 | 0.63 | CC1CCCCC1NC(=O)c1cc(Cl)ccc1Cl (centres unmarked) [Example E33, 2,5-dichloro-N-(2-methylcyclohexyl)benzamide]
22 | 0.71 | COc1c(Cl)cc(Cl)c(OC)c1C(=O)NC1CCCCC1C (centres unmarked) [Example E35, 3,5-dichloro-2,6-dimethoxy-N-(2-methylcyclohexyl)benzamide]
23 | 0.72 | Cc1cc(C)c(C(=O)NC2CCCCC2C)c(C)c1 (centres unmarked) [Example E36, 2,4,6-trunethyl-N-(2-methylcyclohexyl)benzamide]
24 | 0.77 | COc1c(Cl)ccc(Cl)c1C(=O)NC1CCCCC1C (centres unmarked) [Example E37, 3,6-dichloro-2-methoxy-N-(2-methylcyclohexyl)benzamide]
25 | 0.91 | CC1CCCCC1NC(=O)c1c(Cl)cccc1Cl (centres unmarked) [Example E39, 2,6-dichloro-N-(2-methylcyclohexyl)benzamide]
26 | 1.08 | Cc1c(F)c(F)c(C(=O)NC2CCCC(C)C2C)c(F)c1F (centres unmarked) [Example E43, N-(2,3-dimethylcyclohexyl)-2,3,5,6-tetrafluoro-4-methylbenzamide]
27 | 1.08 | CC1CCCC(NC(=O)c2ccnc(Cl)c2)C1C (centres unmarked) [Example E44, 2-chloro-N-(2,3-dimethylcyclohexyl)isonicotinamide]
28 | 1.29 | COc1c(Cl)ccc(Cl)c1C(=O)NC1CCCC(C)C1C (centres unmarked) [Example E48, 3,6-dichloro-N-(2,3-dimethylcyclohexyl)-2-methoxybenzamide]
29 | 1.41 | Cc1cc(C)c(C(=O)NC2CCCC(C)C2C)c(C)c1 (centres unmarked) [Example E50, N-(2,3-dimethylcyclohexyl)-2,4,6-trimethylbenzamide]
30 | 1.52 | Cc1ccc2ccccc2c1C(=O)NC1CCCCC1C (centres unmarked) [Example E52, 2-methyl-N-(2-methylcyclohexyl)-1-naphthamide]
31 | 1.7 | CC1CCCCC1NC(=O)c1ccc(F)c(Cl)c1 (centres unmarked) [Example E53, 3-chloro-4-fluoro-N-(2-methylcyclohexyl)benzamide]
32 | 1.83 | CC1CCCCC1NC(=O)c1ccc(Cl)c(Cl)c1 (centres unmarked) [Example E54, 3,4-dichloro-N-(2-methylcyclohexyl)benzamide]
33 | 1.89 | CC1CCCC(NC(=O)c2cncc(Br)c2)C1C (centres unmarked) [Example E55, 5-bromo-N-(2,3-dimethylcyclohexyl)mcotmamide]
34 | 1.92 | CC1CCCCC1NC(=O)c1ccnc(Cl)c1 (centres unmarked) [Example E56, 2-chloro-N-(2-methylcyclohexyl)isonicotinamide]
35 | 1.95 | Cc1cccc(C(=O)NC2CCCCC2C)c1Cl (centres unmarked) [Example E57, 2-chloro-3-methyl-N-(2-methylcyclohexyl)benzamide]
36 | 2.34 | CC1CCCCC1NC(=O)c1cccc(C(F)(F)F)c1 (centres unmarked) [Example E59, N-(2-methylcyclohexyl)-3-(trifluoromethyl)benzamide]
37 | 2.4 | CC1CCCCC1NC(=O)c1cccc(C(F)(F)F)c1F (centres unmarked) [Example E61, 2-fluoro-N-(2-methylcyclohexyl)-3-(trifluoromethyl)benzamide]
38 | 2.42 | CC1CCCCC1NC(=O)c1cncc(Br)c1 (centres unmarked) [Example E62, 5-bromo-N-(2-methylcyclohexyl)nicotinamide]
